In US12655099B2, “Substituted phenyl sulfide compound and application thereof” (SHENYANG SINOCHEM AGROCHEMICALS R&D CO., LTD., priority 2020, dated 2026):

Experiments:
[1] = system: Adult Spider Mite (Tetranychus cinnabarinus); assay: Activity against adult spider mite, spray on bean leaves, mortality after 72 h; assay type: in vivo; details: adult spider mites
Procedure: According to the solubility of test compounds, the compounds were dissolved with acetone or dimethyl sulfoxide, and then diluted with 0.1% aqueous solution of Tween 80 to form 50 ml test liquid and the content of the acetone or the dimethyl sulfoxide in the total solution was not more than 10% for later use. The adult spider mites were put into two true leaves of bean plants. After the number of mites were investigated, the solution of certain concentrations of test compounds was sprayed by using a handheld Airbrush. Three replicates were set for each treatment. Then the leaves were maintained in standard observation room. After 72 h, the number of surviving mites were observed, and the mortality rate was calculated.

[2] = system: Egg of Spider Mite (Tetranychus Cinnabarinus); assay: Activity against egg of spider mite, POTTER spray tower, incubation inhibition; assay type: in vivo; details: spider mite eggs; for inhibition at 1.25 µg/mL: Tetranychus cinnabarinus, read-out: Inhibition Rate (%)
Procedure: According to the solubility of test compounds, the compounds were dissolved with acetone or dimethyl sulfoxide, and then diluted with 0.1% aqueous solution of Tween 80 to form 50 ml test liquid and the content of the acetone or the dimethyl sulfoxide in the total solution was not more than 10% for later use. The leaves of bean were chopped into leaf discs and put into a petri dish. Female adult mites were inoculated. After laying eggs, the female adult mites were removed. After the number of eggs were investigated, the solution of certain concentrations of test compounds were sprayed with a POTTER spray tower, for 2 mL per treatment, and blank control was set. When all eggs in the blank control were incubated, the number of eggs which were incubated and unincubated was recorded, and incubation inhibition rate of the eggs was calculated.

two-spotted spider mites = details: concentration of 50 ppm; cited from earlier work
Panonychus citri = assay: Field trial against Panonychus citri on citrus trees; assay type: in vivo; details: spray, citrus tree
Procedure: The trial was carried out in the citrus orchard in Yibin City, Sichuan Province. The test sample was “Dekopon”. The test citrus trees were 4 years old and the planting density was more than 70 plants/mu. The test compounds 6 and 14 were set at two different doses of 50 mg/L and 100 mg/L.
As the positive controls, Spirodiclofen suspension agent was set at one dose of 100 mg/L, and Pyridaben wettable powder was set at one dose of 100 mg/L. The test method was spraying by using Pentium 3WBD-20 sprayer, each treatment repeated three times. The number of initial mites was investigated before spraying, and the number of surviving mites was checked and recorded. The number of surviving mites was investigated on the 3 days, 7 days, 14 days, 21 days and 30 days after spraying respectively. The decline rate of mite populationg was counted and the control efficiency was calculated.

Panonychus ulmi = assay: Field trial for controlling Panonychus ulmi on apple trees; assay type: in vivo; details: spray, apple tree
Procedure: The trial was carried out in the orchard of Research Institute of Pomology of Chinese Academy of Agricultural Sciences. The test sample was Starkrimson apple tree, which was 14 years old and the intervals between two plants was 2×4 m. The test compound 14 was set at two different doses of 50 mg/L and 100 mg/L, and Spirodiclofen suspension agent as the positive control was set at one dose of 50 mg/L. The test method was spraying by using the stretcher power sprayer, each treatment repeated three times. The number of initial mites was investigated before spraying, and the number of surviving mites was checked and recorded. The number of surviving mites was investigated on the 3 days, 7 days, 14 days and 21 days after spraying respectively. The decline rate of mite population was counted and the control efficiency was calculated.
[formula] • The field trial results for compound 14 against Panonychus ulmi (Xingcheng, Liaoning, May, 2018) were shown in Table 4.Table 4

[3] = Tetranychus cinnabarinus, 1.25 mg/L

**Q.** For `Cc1cc(F)c(-c2cccc(OC(F)(F)F)c2)cc1SCC(F)(F)F` [KC3, reference compound], which mortality at 1.25 µg/mL [1, 3] is on record?
**A.** Its mortality at 1.25 µg/mL is 50.7%.

**Q.** And the inhibition at 1.25 µg/mL ([2]; 1.25 mg/L)?
**A.** Its inhibition at 1.25 µg/mL is 20.7%.

**Q.** Which lethal activity (two-spotted spider mites) does the source give for `Cc1cc(F)c(-c2cccc(SCc3ccccc3)c2)cc1SCC(F)(F)F` [KC4] here?
**A.** Its lethal activity is “more than 90%”.

**Q.** And the mortality at 1.25 µg/mL [1, 3]?
**A.** Its mortality at 1.25 µg/mL is 16.4%.

**Q.** What about the inhibition at 1.25 µg/mL ([2]; 1.25 mg/L) of the same compound?
**A.** The inhibition at 1.25 µg/mL was 40.8%.

**Q.** For `Cc1cc(F)c(-c2ccccc2[N+](=O)[O-])cc1SCC(F)(F)F` [KC6], which mortality at 1.25 µg/mL [1, 3] is on record?
**A.** The mortality at 1.25 µg/mL was 0%.

**Q.** Which “Inhibition Rate (%)” value ([2]; 0.625 mg/L) does the source give for `Cc1cc(F)c(-c2cccc(SCC(F)(F)F)c2)cc1SCC(F)(F)F` [Compound 19] here?
**A.** Its value is 51.2%.

**Q.** What about the “Inhibition Rate (%)” value ([2]; 1.25 mg/L) of the same compound?
**A.** The value was 81.1%.

**Q.** For `Cc1cc(F)c(-c2cccc([N+](=O)[O-])c2)cc1[S+]([O-])CC(F)(F)F` (centres unmarked) [Compound 6], which “Control efficiency (%) 3 days after pesticide application” value (from here on “Control efficiency (%) 3 days”) (Panonychus citri; 50 mg/L) is on record?
**A.** The value was 98.58%.

**Q.** What about the “Control efficiency (%) 7 days after pesticide application” value (from here on “Control efficiency (%) 7 days”) (Panonychus citri; 50 mg/L) of the same compound?
**A.** Its value is 96.69%.

**Q.** What about the “Control efficiency (%) 14 days after pesticide application” value (from here on “Control efficiency (%) 14 days”) (Panonychus citri; 50 mg/L) of the same compound?
**A.** Its value is 99.28%.

**Q.** What about the “Control efficiency (%) 21 days after pesticide application” value (shortened to “Control efficiency (%) 21 days”) (Panonychus citri; 50 mg/L) of the same compound?
**A.** The value was 95.86%.

**Q.** What about the “Control efficiency (%) 30 days after pesticide application” value (“Control efficiency (%) 30 days” below) (Panonychus citri; 50 mg/L) of the same compound?
**A.** Its value is 94.62%.

**Q.** What about the “Mortality (%)” value ([1]; 0.625 mg/L) of the same compound?
**A.** The value was 80.6%.

**Q.** And the “Mortality (%)” value ([1]; 1.25 mg/L)?
**A.** Its value is 97.6%.

**Q.** For `O=[N+]([O-])c1cccc(-c2cc(SCC(F)(F)F)c(Cl)cc2F)c1` [Compound 8], which “Mortality (%)” value ([1]; 0.625 mg/L) is on record?
**A.** The value was 65.2%.

**Q.** What about the “Mortality (%)” value ([1]; 1.25 mg/L) of the same compound?
**A.** The value was 90.7%.

**Q.** Which results are given for `Cc1cc(F)c(-c2cccc(C(F)(F)F)c2)cc1SCC(F)(F)F` [KC2, reference compound]?
**A.** mortality at 1.25 µg/mL [1, 3]: 56.6%; inhibition at 1.25 µg/mL ([2]; 1.25 mg/L): 36.7%

**Q.** For `Cc1cc(F)c(-c2ccc([N+](=O)[O-])cc2)cc1SCC(F)(F)F` [KC5], which mortality at 0.625 µg/mL ([1]; Tetranychus cinnabarinus, 0.625 mg/L) is on record?
**A.** The mortality at 0.625 µg/mL was 29.8%.

**Q.** What about the mortality at 1.25 µg/mL [1, 3] of the same compound?
**A.** Its mortality at 1.25 µg/mL is 71.7%.

**Q.** With `CC(C)(C)c1ccc(CSc2cnn(C(C)(C)C)c(=O)c2Cl)cc1` [Pyridaben, reference compound] as the compound, how does the “Control efficiency (%) 3 days” value (Panonychus citri; 100 mg/L) read?
**A.** Its value is 80.24%.

**Q.** What about the “Control efficiency (%) 7 days” value (Panonychus citri; 100 mg/L) of the same compound?
**A.** The value was 61.51%.

**Q.** And the “Control efficiency (%) 14 days” value (Panonychus citri; 100 mg/L)?
**A.** Its value is 61.51%.

**Q.** And the “Control efficiency (%) 21 days” value (Panonychus citri; 100 mg/L)?
**A.** Its value is 51.62%.

**Q.** And the “Control efficiency (%) 30 days” value (Panonychus citri; 100 mg/L)?
**A.** Its value is 56.60%.

**Q.** Which results are given for `Cc1cc(F)c(-c2ccc(C(F)(F)F)cc2)cc1SCC(F)(F)F` [KC1, reference compound]?
**A.** mortality at 1.25 µg/mL [1, 3]: 36.5%; inhibition at 1.25 µg/mL ([2]; 1.25 mg/L): 26.2%

**Q.** Which results are given for `Cc1cc(F)c(-c2cccc([N+](=O)[O-])c2)cc1SCC(F)(F)F` [Compound 5]?
**A.** Mortality (%) ([1]; 0.625 mg/L): 95.5%; Mortality (%) ([1]; 1.25 mg/L): 100%; Inhibition Rate (%) ([2]; 0.625 mg/L): 100%; Inhibition Rate (%) ([2]; 1.25 mg/L): 100%

**Q.** Which “Control efficiency (%) 3 days” value (Panonychus citri; 100 mg/L) does the source give for `CCC(C)(C)C(=O)OC1=C(c2ccc(Cl)cc2Cl)C(=O)OC12CCCCC2` [Spirodiclofen, reference compound] here?
**A.** Its value is 91.09%.

**Q.** What about the “Control efficiency (%) 7 days” value (Panonychus citri; 100 mg/L) of the same compound?
**A.** Its value is 80.88%.

**Q.** What about the “Control efficiency (%) 14 days” value (Panonychus citri; 100 mg/L) of the same compound?
**A.** The value was 80.88%.

**Q.** And the “Control efficiency (%) 21 days” value (Panonychus citri; 100 mg/L)?
**A.** The value was 72.63%.

**Q.** And the “Control efficiency (%) 30 days” value (Panonychus citri; 100 mg/L)?
**A.** The value was 73.60%.

**Q.** And the “Control efficiency (%) 3 days” value (Panonychus ulmi; 50 mg/L)?
**A.** The value was 49.6%.

**Q.** What about the “Control efficiency (%) 7 days” value (Panonychus ulmi; 50 mg/L) of the same compound?
**A.** Its value is 45.8%.

**Q.** And the “Control efficiency (%) 14 days” value (Panonychus ulmi; 50 mg/L)?
**A.** The value was 90.3%.

**Q.** What about the “Control efficiency (%) 21 days” value (Panonychus ulmi; 50 mg/L) of the same compound?
**A.** Its value is 94.9%.

**Q.** Which “Control efficiency (%) 3 days” value (Panonychus citri; 50 mg/L) does the source give for `CSc1cccc(-c2cc(SCC(F)(F)F)c(C)cc2F)c1` [Compound 14] here?
**A.** The value was 99.61%.

**Q.** And the “Control efficiency (%) 7 days” value (Panonychus citri; 50 mg/L)?
**A.** Its value is 98.90%.

**Q.** What about the “Control efficiency (%) 14 days” value (Panonychus citri; 50 mg/L) of the same compound?
**A.** The value was 99.08%.

**Q.** What about the “Control efficiency (%) 21 days” value (Panonychus citri; 50 mg/L) of the same compound?
**A.** Its value is 98.57%.

**Q.** What about the “Control efficiency (%) 30 days” value (Panonychus citri; 50 mg/L) of the same compound?
**A.** Its value is 97.35%.

**Q.** What about the “Control efficiency (%) 3 days” value (Panonychus ulmi; 50 mg/L) of the same compound?
**A.** The value was 92.2%.

**Q.** And the “Control efficiency (%) 7 days” value (Panonychus ulmi; 50 mg/L)?
**A.** Its value is 86.4%.

**Q.** And the “Control efficiency (%) 14 days” value (Panonychus ulmi; 50 mg/L)?
**A.** The value was 97.3%.

**Q.** What about the “Control efficiency (%) 21 days” value (Panonychus ulmi; 50 mg/L) of the same compound?
**A.** Its value is 93.2%.

**Q.** And the “Control efficiency (%) 3 days” value (Panonychus ulmi; 100 mg/L)?
**A.** The value was 94.4%.

**Q.** What about the “Control efficiency (%) 7 days” value (Panonychus ulmi; 100 mg/L) of the same compound?
**A.** The value was 96.6%.

**Q.** What about the “Control efficiency (%) 14 days” value (Panonychus ulmi; 100 mg/L) of the same compound?
**A.** Its value is 99.8%.

**Q.** And the “Control efficiency (%) 21 days” value (Panonychus ulmi; 100 mg/L)?
**A.** The value was 99.1%.

**Q.** What about the “Inhibition Rate (%)” value ([2]; 0.625 mg/L) of the same compound?
**A.** The value was 65.3%.

**Q.** And the “Inhibition Rate (%)” value ([2]; 1.25 mg/L)?
**A.** Its value is 95.8%.
